{"source": "paper PMC8379256", "about": "“A xanthene derivative, DS20060511, attenuates glucose intolerance by inducing skeletal muscle-specific GLUT4 translocation in mice” (Communications Biology, 2021)", "tested_on": "C57BL/6 mice", "test": "Indirect calorimetry and exercise endurance under stepwise treadmill running", "assay_type": "in vivo, mouse", "conditions": "30 mg/kg; for O2 Consumption (VO2) / Respiratory quotient / CO2 Production (VCO2): DS20060511 30 mg/kg, individual mice 1-7, Fig. 5a", "procedure": "The mice were acclimatized to the treadmill by allowing them to run at 10 m min^−1 for 10 min on the day before the test. On the day of the test, the mice received oral administration of 30 mg kg^−1 of DS20060511 or vehicle 15 min before they were made to run. The treadmill was started at a velocity of 10 m min^−1, with the speed increased stepwise by 2 m min^−1 every 3 min, to assess the exercise endurance capacity as described previously. Measurements of the oxygen consumption (VO2) and exhaled carbon dioxide (VCO2) under treadmill running were conducted with the ARCO-2000 magnetic-type mass spectrometric calorimeter (ARCO System, Kashiwa, Japan) connected to the treadmill chamber (MB-2000, ARCO System). The RER was calculated as the VCO2/VO2 ratio and the substrate utilization rates were calculated using Frayn’s formula[51]: rate of glucose oxidation = 4.585VCO2 − 3.226VO2; rate of fat oxidation = 1.695VO2 − 1.701VCO2. The exercise endurance capacity under treadmill running was determined by measuring the time from the start to the time until the mice ceased to run because of exhaustion, which was defined as remaining on the shocker plate for more than 10 sec. Immediately after the exercise, the blood glucose and lactate levels were measured using Glutest Every and Lactate Pro2 (ARKRAY, Kyoto, Japan), respectively, in blood samples collected from the tail vein.", "note": "Values joined by “and” are separate entries in the source; they are usually repeats but may differ in a detail not shown here. Equal entries are not always repeated.", "data": [{"smiles": "COc1ccc2c(C)c(C(=O)O)ccc2c1C1C2=C(CC(C)(C)CC2=O)OC2=C1C(=O)CC(C)(C)C2", "note": "[DS20060511]", "values": [{"measurement": "O2 Consumption (VO2)", "setting": "2 min", "value": "108.3 ml/min/kg and 99.5 ml/min/kg and 86.9 ml/min/kg and 90.3 ml/min/kg (2×) and 96.4 ml/min/kg and 122.1 ml/min/kg"}, {"measurement": "Respiratory quotient", "setting": "2 min", "value": "0.76 (2×) and 0.78 and 0.75 and 0.82 (2×) and 0.79"}, {"measurement": "CO2 Production (VCO2)", "setting": "3 min", "value": "92.0 mL/min/kg and 71.1 mL/min/kg and 77.7 mL/min/kg and 83.7 mL/min/kg and 70.1 mL/min/kg and 74.8 mL/min/kg and 73.0 mL/min/kg"}, {"measurement": "O2 Consumption (VO2)", "setting": "3 min", "value": "103.2 mL/min/kg and 101.7 mL/min/kg and 88.1 mL/min/kg and 95.2 mL/min/kg and 94.7 mL/min/kg and 120.2 mL/min/kg and 89.5 mL/min/kg"}, {"measurement": "Respiratory quotient", "setting": "3 min", "value": "0.77 (2×) and 0.79 (2×) and 0.75 and 0.82 and 0.80"}, {"measurement": "CO2 Production (VCO2)", "setting": "4 min", "value": "90.3 mL/min/kg and 73.1 mL/min/kg and 78.3 mL/min/kg and 89.7 mL/min/kg and 70.1 mL/min/kg and 72.9 mL/min/kg and 72.1 mL/min/kg"}, {"measurement": "O2 Consumption (VO2)", "setting": "4 min", "value": "103.7 ml/min/kg and 110.0 ml/min/kg and 106.3 ml/min/kg and 93.1 ml/min/kg (2×) and 117.2 ml/min/kg and 90.4 ml/min/kg"}, {"measurement": "Respiratory quotient", "setting": "4 min", "value": "0.77 (2×) and 0.81 (2×) and 0.75 and 0.66 and 0.78"}, {"measurement": "CO2 Production (VCO2)", "setting": "5 min", "value": "91.5 mL/min/kg and 72.5 mL/min/kg and 78.6 mL/min/kg and 85.8 mL/min/kg and 66.5 mL/min/kg and 73.8 mL/min/kg and 71.7 mL/min/kg"}, {"measurement": "O2 Consumption (VO2)", "setting": "5 min", "value": "103.7 mL/min/kg and 103.8 mL/min/kg and 83.5 mL/min/kg and 95.6 mL/min/kg and 90.5 mL/min/kg and 116.5 mL/min/kg and 90.3 mL/min/kg"}, {"measurement": "Respiratory quotient", "setting": "5 min", "value": "0.78 and 0.80 (2×) and 0.76 and 0.83 and 0.77 and 0.79"}, {"measurement": "CO2 Production (VCO2)", "setting": "6 min", "value": "87.9 mL/min/kg and 70.6 mL/min/kg and 76.9 mL/min/kg and 85.9 mL/min/kg and 73.0 mL/min/kg and 71.8 mL/min/kg and 71.2 mL/min/kg"}, {"measurement": "O2 Consumption (VO2)", "setting": "6 min", "value": "100.7 mL/min/kg and 102.8 mL/min/kg and 90.9 mL/min/kg and 93.7 mL/min/kg and 92.0 mL/min/kg and 112.2 mL/min/kg and 87.4 mL/min/kg"}, {"measurement": "Respiratory quotient", "setting": "6 min", "value": "0.78 and 0.81 and 0.76 and 0.84 and 0.80 and 0.77 (2×)"}, {"measurement": "CO2 Production (VCO2)", "setting": "7 min", "value": "93.5 mL/min/kg and 69.9 mL/min/kg and 76.8 mL/min/kg and 86.5 mL/min/kg and 72.9 mL/min/kg and 71.9 mL/min/kg and 70.2 mL/min/kg"}, {"measurement": "O2 Consumption (VO2)", "setting": "7 min", "value": "101.1 mL/min/kg and 105.0 mL/min/kg and 90.7 mL/min/kg and 93.7 mL/min/kg and 90.0 mL/min/kg and 120.2 mL/min/kg and 86.5 mL/min/kg"}, {"measurement": "Respiratory quotient", "setting": "7 min", "value": "0.78 (2×) and 0.81 and 0.76 and 0.82 and 0.80 and 0.77"}, {"measurement": "CO2 Production (VCO2)", "setting": "8 min", "value": "88.9 mL/min/kg and 75.0 mL/min/kg and 78.4 mL/min/kg and 85.8 mL/min/kg and 72.7 mL/min/kg and 72.1 mL/min/kg and 69.7 mL/min/kg"}, {"measurement": "O2 Consumption (VO2)", "setting": "8 min", "value": "103.5 mL/min/kg and 107.7 mL/min/kg and 91.4 mL/min/kg and 93.1 mL/min/kg and 101.3 mL/min/kg and 113.1 mL/min/kg and 92.7 mL/min/kg"}, {"measurement": "Respiratory quotient", "setting": "8 min", "value": "0.79 and 0.81 and 0.76 and 0.80 (2×) and 0.77 and 0.69"}, {"measurement": "CO2 Production (VCO2)", "setting": "9 min", "value": "95.5 mL/min/kg and 73.8 mL/min/kg and 77.9 mL/min/kg and 84.5 mL/min/kg and 74.4 mL/min/kg and 71.2 mL/min/kg and 78.8 mL/min/kg"}, {"measurement": "O2 Consumption (VO2)", "setting": "9 min", "value": "100.3 mL/min/kg and 103.6 mL/min/kg and 93.8 mL/min/kg and 94.2 mL/min/kg and 95.0 mL/min/kg and 118.5 mL/min/kg and 89.8 mL/min/kg"}, {"measurement": "Respiratory quotient", "setting": "9 min", "value": "0.81 and 0.82 (2×) and 0.78 and 0.79 and 0.76 and 0.83"}, {"measurement": "CO2 Production (VCO2)", "setting": "10 min", "value": "92.6 ml/min/kg and 70.7 ml/min/kg and 80.1 ml/min/kg and 84.2 ml/min/kg (2×) and 72.0 ml/min/kg and 74.9 ml/min/kg"}, {"measurement": "O2 Consumption (VO2)", "setting": "10 min", "value": "104.6 mL/min/kg and 102.1 mL/min/kg and 90.2 mL/min/kg and 95.3 mL/min/kg and 98.2 mL/min/kg and 113.5 mL/min/kg and 87.0 mL/min/kg"}, {"measurement": "Respiratory quotient", "setting": "10 min", "value": "0.82 (2×) and 0.81 and 0.77 and 0.80 and 0.79 and 0.86"}, {"measurement": "CO2 Production (VCO2)", "setting": "11 min", "value": "96.0 ml/min/kg and 73.8 ml/min/kg and 80.9 ml/min/kg and 84.3 ml/min/kg and 71.1 ml/min/kg (2×) and 86.5 ml/min/kg"}, {"measurement": "O2 Consumption (VO2)", "setting": "11 min", "value": "106.8 mL/min/kg and 102.9 mL/min/kg and 84.9 mL/min/kg and 92.0 mL/min/kg and 101.1 mL/min/kg and 115.1 mL/min/kg and 89.8 mL/min/kg"}, {"measurement": "Respiratory quotient", "setting": "11 min", "value": "0.83 and 0.82 (2×) and 0.76 and 0.84 and 0.77 and 0.85"}, {"measurement": "CO2 Production (VCO2)", "setting": "12 min", "value": "97.3 mL/min/kg and 74.3 mL/min/kg and 80.0 mL/min/kg and 93.2 mL/min/kg and 68.6 mL/min/kg and 70.0 mL/min/kg and 89.3 mL/min/kg"}, {"measurement": "O2 Consumption (VO2)", "setting": "12 min", "value": "103.8 mL/min/kg and 112.5 mL/min/kg and 85.8 mL/min/kg and 91.1 mL/min/kg and 105.1 mL/min/kg and 120.4 mL/min/kg and 90.9 mL/min/kg"}, {"measurement": "Respiratory quotient", "setting": "12 min", "value": "0.81 and 0.82 and 0.77 (2×) and 0.83 and 0.80 and 0.85"}, {"measurement": "CO2 Production (VCO2)", "setting": "13 min", "value": "101.9 mL/min/kg and 82.3 mL/min/kg and 78.0 mL/min/kg and 86.9 mL/min/kg and 68.9 mL/min/kg and 69.6 mL/min/kg and 93.3 mL/min/kg"}, {"measurement": "O2 Consumption (VO2)", "setting": "13 min", "value": "102.8 mL/min/kg and 102.5 mL/min/kg and 86.7 mL/min/kg and 90.5 mL/min/kg and 109.1 mL/min/kg and 127.7 mL/min/kg and 94.9 mL/min/kg"}, {"measurement": "Respiratory quotient", "setting": "13 min", "value": "0.80 and 0.87 and 0.76 and 0.85 and 0.79 and 0.77 and 0.86"}, {"measurement": "CO2 Production (VCO2)", "setting": "14 min", "value": "100.6 mL/min/kg and 80.5 mL/min/kg and 79.5 mL/min/kg and 84.1 mL/min/kg and 69.5 mL/min/kg and 69.8 mL/min/kg and 95.1 mL/min/kg"}, {"measurement": "O2 Consumption (VO2)", "setting": "14 min", "value": "102.1 mL/min/kg and 101.4 mL/min/kg and 88.4 mL/min/kg and 91.3 mL/min/kg and 109.8 mL/min/kg and 125.1 mL/min/kg and 95.0 mL/min/kg"}, {"measurement": "Respiratory quotient", "setting": "14 min", "value": "0.80 and 0.85 and 0.78 and 0.83 and 0.79 and 0.76 and 0.87"}, {"measurement": "CO2 Production (VCO2)", "setting": "15 min", "value": "92.4 mL/min/kg and 82.1 mL/min/kg and 81.9 mL/min/kg and 83.7 mL/min/kg and 69.2 mL/min/kg and 69.5 mL/min/kg and 105.4 mL/min/kg"}, {"measurement": "O2 Consumption (VO2)", "setting": "15 min", "value": "105.0 mL/min/kg and 100.1 mL/min/kg and 87.5 mL/min/kg and 93.8 mL/min/kg and 120.2 mL/min/kg and 115.1 mL/min/kg and 96.2 mL/min/kg"}, {"measurement": "Respiratory quotient", "setting": "15 min", "value": "0.80 and 0.85 and 0.78 and 0.84 and 0.79 and 0.74 and 0.88"}, {"measurement": "CO2 Production (VCO2)", "setting": "16 min", "value": "98.8 mL/min/kg and 82.5 mL/min/kg"}, {"measurement": "O2 Consumption (VO2)", "setting": "16 min", "value": "103.6 mL/min/kg and 108.6 mL/min/kg"}, {"measurement": "Respiratory quotient", "setting": "16 min", "value": "0.79 and 0.85"}, {"measurement": "Blood glucose", "setting": "exercise tolerance test, individual mice", "value": "124 mg/dL and 146 mg/dL and 95 mg/dL and 96 mg/dL and 149 mg/dL and 133 mg/dL and 119 mg/dL"}]}]}
